Assay results as given in ChEMBL document CHEMBL1150399, “Evaluation of novel hyphodermin derivatives as glycogen phosphorylase a inhibitors” (Bioorg Med Chem, 2008).
Active and inactive are the calls of the source. The calls are words filed in the database; no cut-off is given here.

Tests used:
[1] = target: T1, Glycogen phosphorylase, muscle form (Oryctolagus cuniculus) (UniProt P00489); test: Inhibition of rabbit glycogen phosphorylase assessed as release of phosphate from glucose 1 phosphate at 22 mM
T1 sequence (whole entry): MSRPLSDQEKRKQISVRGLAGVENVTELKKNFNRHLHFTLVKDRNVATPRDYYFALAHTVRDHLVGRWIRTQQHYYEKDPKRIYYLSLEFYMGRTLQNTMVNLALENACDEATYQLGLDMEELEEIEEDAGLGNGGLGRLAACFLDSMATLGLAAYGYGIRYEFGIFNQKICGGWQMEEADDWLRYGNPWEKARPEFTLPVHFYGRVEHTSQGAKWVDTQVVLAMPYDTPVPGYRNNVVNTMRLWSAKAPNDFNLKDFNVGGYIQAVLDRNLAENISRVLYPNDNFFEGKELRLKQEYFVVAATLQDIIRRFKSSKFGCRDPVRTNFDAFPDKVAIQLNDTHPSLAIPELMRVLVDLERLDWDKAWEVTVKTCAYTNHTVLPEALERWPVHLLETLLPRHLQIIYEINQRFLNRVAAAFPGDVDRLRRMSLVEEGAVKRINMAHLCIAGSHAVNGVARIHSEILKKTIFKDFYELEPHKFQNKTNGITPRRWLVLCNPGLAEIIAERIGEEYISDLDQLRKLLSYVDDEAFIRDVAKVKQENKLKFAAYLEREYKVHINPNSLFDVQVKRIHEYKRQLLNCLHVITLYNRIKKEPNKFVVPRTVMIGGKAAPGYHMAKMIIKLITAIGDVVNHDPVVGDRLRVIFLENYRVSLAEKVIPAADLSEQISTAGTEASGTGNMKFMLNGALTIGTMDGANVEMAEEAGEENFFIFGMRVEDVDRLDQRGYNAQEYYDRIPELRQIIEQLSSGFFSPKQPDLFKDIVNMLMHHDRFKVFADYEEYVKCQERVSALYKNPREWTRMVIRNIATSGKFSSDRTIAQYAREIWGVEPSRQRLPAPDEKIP

[2] = target: T2, Glycogen phosphorylase, muscle form (Oryctolagus cuniculus, UniProt P00489); test: Inhibition of rabbit muscle glycogen phosphorylase assessed as release of phosphate from glucose 1 phosphate
T2 sequence (P00489 whole entry): T1 sequence (whole entry)

[3] = target: T1, Glycogen phosphorylase, muscle form (Oryctolagus cuniculus); test: Inhibition of rabbit glycogen phosphorylase assessed as release of phosphate from glucose 1 phosphate at 3 mM
[4] = target: T1, Glycogen phosphorylase, muscle form (Oryctolagus cuniculus); test: Inhibition of rabbit muscle glycogen phosphorylase assessed as release of phosphate from glucose 1 phosphate at 0.222 to 22 mM
[5] = target: T1, Glycogen phosphorylase, muscle form (Oryctolagus cuniculus); test: Inhibition of rabbit glycogen phosphorylase assessed as release of phosphate from glucose 1 phosphate at <=1.4 to 3 mM

SMILES | Activity [4] | other results
O=C(O)c1ccc2c3c1C(=O)N(Cc1ccccc1)C3(O)CCC2 (stereo not drawn) | – | inhibition [1]: 65%; IC50 [2]: 1200 µM
COC1OC(=O)c2ccc3c(c21)C(=O)C=CC3(C)C (stereo not drawn) | – | inhibition [3]: 15%
CC1(C)CCC(=O)c2c1ccc1c2C(O)OC1=O (stereo not drawn) | inactive | Activity [5]: inactive
COC(=O)c1ccc2c(c1C(=O)OC)C(=O)[C@@H]1O[C@@H]1C2(C)C (racemic) | inactive | –
COC(=O)c1ccc2c(c1C(=O)OC)C(=O)C=CC2(C)C | inactive | –
CC1(C)c2ccc3c(c2C(=O)[C@@H]2O[C@@H]21)[C@H](O)OC3=O (racemic) | inactive | Activity [5]: inactive
CCN(CC)C(=O)c1c(C(=O)O)ccc2c1C(=O)CCC2 | inactive | –
O=C(O)c1ccc2c3c1C(=O)N(c1ccccc1)C3=CCC2 | – | inhibition [1]: 46%; IC50 [2]: 800 µM
O=C(O)c1ccc2c(c1C(=O)Nc1ccccc1)C(=O)CCC2 | inactive | –
CCCCCSC(=O)c1c(C(=O)O)ccc2c1C(=O)CCC2 | – | inhibition [1]: 55%; IC50 [2]: 1300 µM
CC1(C)CCC(=O)c2c1ccc(C(=O)O)c2C(=O)O | inactive | –
CC1(C)C=CC(=O)c2c1ccc(C(=O)O)c2C(=O)O | inactive | –
O=C(O)c1ccc2c(c1C(=O)N1CCOCC1)C(=O)CCC2 | inactive | –
CC1(C)C=CC(=O)c2c1ccc1c2C(O)OC1=O (stereo not drawn) | inactive | –
O=C(O)c1ccc2c3c1C(=O)N(c1ccccc1)C3(O)CCC2 (stereo not drawn) | inactive | –
COC(=O)c1ccc2c(c1C(=O)OC)C(=O)CCC2(C)C | inactive | –
O=C(O)c1ccc2c3c1C(=O)N(Cc1ccccc1)C3=CCC2 | – | inhibition [1]: 46%; IC50 [2]: 1100 µM
COC(=O)c1c(C(=O)O)ccc2c1C(=O)CCC2 | inactive | –
CO[C@@H]1OC(=O)c2ccc3c(c21)C(=O)[C@@H]1O[C@@H]1C3(C)C (racemic) | inactive | Activity [5]: inactive
CC(C)OC(=O)c1c(C(=O)O)ccc2c1C(=O)CCC2 | inactive | –
O=C1OC(=O)c2c1ccc1c2C(=O)CCC1 | inactive | –
COC(=O)c1ccc2c(c1C(=O)OC)C(=O)C(Br)CC2(C)C (stereo not drawn) | inactive | –
O=C(O)c1ccc2c(c1C(=O)O)C(=O)CCC2 | inactive | –
COC(=O)c1ccc2c(c1C(=O)OC)C(=O)CCC2 | inactive | –
O=C(O)c1ccc2c(c1C(=O)NCc1ccccc1)C(=O)CCC2 | – | inhibition [1]: 89%; IC50 [2]: 11700 µM
